One series deals with China jute (Ab). Kind of series: Test Example 4: crop plant selectivity by upland field soil treatment (cotton), herbicidal effects. It is filed as in vivo. Also noted: scale not given here. Particulars: evaluated 21st day after application. Summed up:
(§1)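 Cotton and weeds (incl. China jute, pale smartweed, slender amaranth) sown in sand-filled pots and covered with soil, then soil-treated. Grown in greenhouse; herbicidal effect and cotton phytotoxicity scored on day 21 after application against a rating standard.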

In series [1] the test system is pale smartweed (Po). The description is as above. Also noted: scale not given here. Conditions: evaluated 21st day after application. It is filed as in vivo. Summed up: as §1
A further series has as its system slender amaranth (Am). Described as above. It is filed as in vivo. Particulars: evaluated 21st day after application. Details: scale not given here. The essentials:
as §1

The subject of series [2] is common lambsquarters (Ch). The series is described as above. Details: scale not given here. Conditions: evaluated 21st day after application. It is filed as in vivo. Summed up:
as §1

Another series relates to rice flatsedge (Ci). As to the kind of experiment: Test Example 2: herbicidal effects by upland field soil treatment.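 Also: grade of growth control; 5 = at least 90%; 4 = 70 to 90%; 3 = 50 to 70%; 2 = 30 to 50%; 1 = 10 to 30%; 0 = under 10%.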 It counts as in vivo. Conditions: 100 g of the active ingredient per 10 ares. An excerpt: (§2) (Test on Herbicidal Effects by Upland Field Soil Treatment)
In another series the test system is barnyardgrass (Ec). The series is described as above. It is filed as in vivo. Conditions: 100 g of the active ingredient per 10 ares.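 Also: grade of growth control; 5 = at least 90%; 4 = 70 to 90%; 3 = 50 to 70%; 2 = 30 to 50%; 1 = 10 to 30%; 0 = under 10%.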
From the text: as §2

Series [3] relates to pale smartweed (Po). The series is described as above. It counts as in vivo. Particulars: 100 g of the active ingredient per 10 ares.
From the text: as §2

In series [4] the test system is common lambsquarters (Ch). The description is as above. It counts as in vivo. Conditions: 100 g of the active ingredient per 10 ares.
From the text: as §2

The test system of a further series is corn (Ze). Kind of series: Test Example 11: crop plant selectivity by upland field foliage treatment (corn), phytotoxicity. Particulars: upland field foliage treatment, dose 1.6 g ai/10a, 14th day after treatment. Summed up: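 Corn and the weed species were sown together in sand-filled pots and grown in a greenhouse for 2 weeks before foliar treatment. Herbicidal effect was scored on day 14 after treatment against a graded standard scale, with corn phytotoxicity scored alongside.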

Setting [5] is: 21st day after the application, index 0-5 of Table 47.
The mark [6] stands for this setting: evaluated on the 21st day after application.

As to `C#CCOc1cc(-c2ccc(C(F)(F)F)n(C)c2=O)c(F)cc1Cl` [1-18], the “Herbicidal effects Ab” value in the series with China jute (Ab) (dose 1.6 g ai/10 a) and in the series with China jute (Ab) (dose 6.3 g ai/10 a) was 5 throughout. For the same molecule, the “Herbicidal effects Po” value in the series on pale smartweed (Po) [1] (dose 1.6 g ai/10 a), with pale smartweed (Po) [1] (dose 6.3 g ai/10 a) and with pale smartweed (Po) [3] (setting [5]) was 5 each time. Besides, the “Herbicidal effects Am” value in the series with slender amaranth (Am) (dose 1.6 g ai/10 a) and with slender amaranth (Am) (dose 6.3 g ai/10 a) was 5 in each case. Further, the “Herbicidal effects Ch” value in [2] (dose 1.6 g ai/10 a), in series [2] (dose 6.3 g ai/10 a) and in series [4] (setting [5]) was 5 throughout. Besides, the “Herbicidal effects Ci” value with rice flatsedge (Ci) (setting [5]) is 5. In addition, the “Herbicidal effects Ec” value in the series on barnyardgrass (Ec) (setting [5]) is given as 5. For the same molecule, in the series on corn (Ze), the “Phytotoxicity Ze” value was 2.

Regarding `Cn1c(C(F)(F)F)ccc(-c2cc(OCC#N)c(Cl)cc2F)c1=O` [1-25], the “Herbicidal effects Ab” value in the series on China jute (Ab) (dose 6.3 g ai/10 a) came out at 5. The “Herbicidal effects Po” value in the series on pale smartweed (Po) [1] (dose 6.3 g ai/10 a) and in the series with pale smartweed (Po) [3] (setting [5]) was 5 in each case. Also, the “Herbicidal effects Am” value in the series on slender amaranth (Am) (dose 6.3 g ai/10 a) was 5. Moreover, the “Herbicidal effects Ch” value in series [2] (dose 6.3 g ai/10 a) and in series [4] (setting [5]) was 5 throughout. Further, the “Herbicidal effects Ci” value in the series with rice flatsedge (Ci) (setting [5]) was 5. Besides, the “Herbicidal effects Ec” value with barnyardgrass (Ec) (setting [5]) turned out to be 5. The “Phytotoxicity Ze” value in the series on corn (Ze) turned out to be 2.

On to `C#CCOc1cc(-c2ccc(C(F)(F)F)n(C)c2=O)c(Cl)cc1Cl` [1-30], for which the “Herbicidal effects Ab” value in the series with China jute (Ab) (dose 1.6 g ai/10 a) and in the series on China jute (Ab) (dose 6.3 g ai/10 a) was 5 each time. The “Herbicidal effects Po” value in the series with pale smartweed (Po) [1] (dose 1.6 g ai/10 a), in the series on pale smartweed (Po) [1] (dose 6.3 g ai/10 a) and with pale smartweed (Po) [3] (setting [5]) was 5 throughout. The “Herbicidal effects Am” value in the series on slender amaranth (Am) (dose 1.6 g ai/10 a) and with slender amaranth (Am) (dose 6.3 g ai/10 a) was 5 throughout. For the same molecule, the “Herbicidal effects Ch” value in series [2] (dose 1.6 g ai/10 a), in series [2] (dose 6.3 g ai/10 a) and in series [4] (setting [5]) was 5 each time. The “Herbicidal effects Ci” value in the series on rice flatsedge (Ci) (setting [5]) was 5. In addition, the “Herbicidal effects Ec” value in the series on barnyardgrass (Ec) (setting [5]) came to 5. Also, the “Phytotoxicity Ze” value in the series on corn (Ze) is given as 2.

Consider `CCOC(=O)c1cc(-c2ccc(C(F)(F)F)n(C)c2=O)c(F)cc1Cl` [1-65], for which the “Herbicidal effects Ab” value with China jute (Ab) (dose 1.6 g ai/10 a) and in the series with China jute (Ab) (dose 6.3 g ai/10 a) was 5 throughout. The “Herbicidal effects Po” value in the series on pale smartweed (Po) [1] (dose 1.6 g ai/10 a), in the series on pale smartweed (Po) [1] (dose 6.3 g ai/10 a) and in the series on pale smartweed (Po) [3] (setting [5]) was 5 each time. For the same molecule, the “Herbicidal effects Am” value with slender amaranth (Am) (dose 1.6 g ai/10 a) and in the series on slender amaranth (Am) (dose 6.3 g ai/10 a) was 5 throughout. The “Herbicidal effects Ch” value in [2] (dose 1.6 g ai/10 a), in series [2] (dose 6.3 g ai/10 a) and in [4] (setting [5]) was 5 throughout. In addition, the “Herbicidal effects Ci” value in the series with rice flatsedge (Ci) (setting [5]) is 5. Further, the “Herbicidal effects Ec” value with barnyardgrass (Ec) (setting [5]) is reported as 5. Further, the “Phytotoxicity Ze” value in the series on corn (Ze) was 2.

With `Cn1c(C(F)(F)F)ccc(-c2cc(OCCCl)c(Cl)cc2F)c1=O` [1-171], the “Herbicidal effects Ab” value with China jute (Ab) (dose 6.3 g ai/10 a) turned out to be 5. The “Herbicidal effects Po” value in the series on pale smartweed (Po) [1] (dose 6.3 g ai/10 a) and in the series on pale smartweed (Po) [3] (setting [6]) was 5 in each case. In the series with slender amaranth (Am) (dose 6.3 g ai/10 a), the “Herbicidal effects Am” value came out at 5. For the same molecule, the “Herbicidal effects Ch” value in series [2] (dose 6.3 g ai/10 a) and in series [4] (setting [6]) was 5 each time. Moreover, the “Herbicidal effects Ci” value in the series on rice flatsedge (Ci) (setting [6]) was 5. In addition, the “Herbicidal effects Ec” value in the series with barnyardgrass (Ec) (setting [6]) stood at 5. In addition, the “Phytotoxicity Ze” value with corn (Ze) is 1.

`C#CCOc1cc(-c2ccc(C(F)(F)F)n(N)c2=O)c(F)cc1Cl` [1-178]: the “Herbicidal effects Ab” value with China jute (Ab) (dose 1.6 g ai/10 a) and in the series on China jute (Ab) (dose 6.3 g ai/10 a) was 5 in each case. Besides, the “Herbicidal effects Po” value with pale smartweed (Po) [1] (dose 1.6 g ai/10 a), in the series on pale smartweed (Po) [1] (dose 6.3 g ai/10 a) and in the series on pale smartweed (Po) [3] (setting [6]) was 5 throughout. The “Herbicidal effects Am” value with slender amaranth (Am) (dose 1.6 g ai/10 a) and in the series with slender amaranth (Am) (dose 6.3 g ai/10 a) was 5 throughout. Moreover, the “Herbicidal effects Ch” value in series [2] (dose 1.6 g ai/10 a), in series [2] (dose 6.3 g ai/10 a) and in [4] (setting [6]) was 5 each time. In the series with rice flatsedge (Ci) (setting [6]), the “Herbicidal effects Ci” value was determined as 5. Further, the “Herbicidal effects Ec” value with barnyardgrass (Ec) (setting [6]) stood at 5. Further, the “Phytotoxicity Ze” value with corn (Ze) is reported as 2.

Consider `COc1cc(-c2ccc(C(F)(F)F)n(N)c2=O)c(F)cc1Cl` [1-179], for which the “Herbicidal effects Ab” value in the series on China jute (Ab) (dose 6.3 g ai/10 a) stood at 5. Besides, the “Herbicidal effects Po” value with pale smartweed (Po) [1] (dose 6.3 g ai/10 a) and with pale smartweed (Po) [3] (setting [6]) was 5 each time. Further, the “Herbicidal effects Am” value in the series on slender amaranth (Am) (dose 6.3 g ai/10 a) turned out to be 5. Also, the “Herbicidal effects Ch” value in series [2] (dose 6.3 g ai/10 a) and in series [4] (setting [6]) was 5 each time. Also, in the series with rice flatsedge (Ci) (setting [6]), the “Herbicidal effects Ci” value was 5. For the same molecule, the “Herbicidal effects Ec” value in the series on barnyardgrass (Ec) (setting [6]) is recorded as 5. Besides, the “Phytotoxicity Ze” value in the series with corn (Ze) came out at 1.

Turning to `CCOCOc1cc(-c2ccc(C(F)(F)F)n(C)c2=O)c(F)cc1Cl` [1-181], in the series on China jute (Ab) (dose 6.3 g ai/10 a), the “Herbicidal effects Ab” value is reported as 5. Besides, the “Herbicidal effects Po” value in the series with pale smartweed (Po) [1] (dose 6.3 g ai/10 a) and with pale smartweed (Po) [3] (setting [6]) was 5 each time. The “Herbicidal effects Am” value with slender amaranth (Am) (dose 6.3 g ai/10 a) is reported as 5. The “Herbicidal effects Ch” value in series [2] (dose 6.3 g ai/10 a) and in [4] (setting [6]) was 5 in each case. In the series on rice flatsedge (Ci) (setting [6]), the “Herbicidal effects Ci” value is listed as 5. Further, the “Herbicidal effects Ec” value in the series with barnyardgrass (Ec) (setting [6]) is given as 5. Besides, the “Phytotoxicity Ze” value with corn (Ze) was 2.

`C#CC(C)Oc1cc(Cl)cc(F)c1-c1ccc(C(F)(F)F)n(C)c1=O` (centres unmarked) [1′-5]: the “Herbicidal effects Ab” value in the series on China jute (Ab) (dose 1.6 g ai/10 a) and in the series with China jute (Ab) (dose 6.3 g ai/10 a) was 5 throughout. Besides, the “Herbicidal effects Po” value in the series on pale smartweed (Po) [1] (dose 1.6 g ai/10 a), with pale smartweed (Po) [1] (dose 6.3 g ai/10 a) and in the series with pale smartweed (Po) [3] (setting [6]) was 5 each time. Also, the “Herbicidal effects Am” value with slender amaranth (Am) (dose 1.6 g ai/10 a) and in the series with slender amaranth (Am) (dose 6.3 g ai/10 a) was 5 each time. Further, the “Herbicidal effects Ch” value in series [2] (dose 1.6 g ai/10 a), in series [2] (dose 6.3 g ai/10 a) and in series [4] (setting [6]) was 5 in each case. Besides, in the series with rice flatsedge (Ci) (setting [6]), the “Herbicidal effects Ci” value was found to be 5. The “Herbicidal effects Ec” value in the series on barnyardgrass (Ec) (setting [6]) is 5. In the series on corn (Ze), the “Phytotoxicity Ze” value is listed as 1.

The values above are taken from patent US6472348B1, “Pyridone derivatives and herbicides” (Kumiai Chemical Industry Co., Ltd., priority 1996, dated 2002).
